Test: Topical application of the preparation to affected skin areas of plaque psoriasis patients
Type: in vivo, human
Settings: twice daily, six to twelve weeks
Text: The topical application using the preparation herein for treatment of psoriasis according to the present invention, to accelerate healing, merely requires a once to twice daily application of the formed preparation to the affected areas for a period of six to twelve weeks. Generally, no special precautions are required other than the general precautions which accompany the topical application of topical steroids to the skin. Evaluation of the effectiveness of the preparation herein, is by simple examination of the patient and reduction of rash and other skin symptoms, and by changes in the amounts of itching present.
Topical application of the preparation for plaque psoriasis treatment herein to affected skin areas, on a twice, daily basis, generally produces beneficial effects on plaque psoriasis when applied over a period of time between six to twelve weeks. […] The clearing noted lasting for a prolonged period after treatment. […]
In a regimen for treatment of plaque psoriasis patients, the preparation herein is mixed and provided to the patient for topical application twice daily for a period of six to twelve weeks, depending on the individual patient results which may be evaluated after each four to six week period by an examination of the areas of body of the patient, and the reduction or total clearing of rash and other skin symptoms in those area. […]

Which “outcome of topical treatment of plaque psoriasis (clearing of affected areas), in words” value does the source give for `CCC(=O)O[C@]1(C(=O)CCl)[C@@H](C)C[C@H]2[C@@H]3CCC4=CC(=O)C=C[C@]4(C)[C@@]3(F)[C@@H](O)C[C@@]21C` [clobetasol propionate] here?
The value was “reduction or elimination of the plaque psoriasis”.

— patent US20180000836A1, “Topical Treatment for Psoriasis” (priority 2016, published 2018)
